Data reported in US11571484B2, “Compositions that target tumor-associated macrophages and methods of use therefor” (Sanford Burnham Prebys Medical Discovery Institute, priority 2017, dated 2023).
Ends that are not written are not given here.

Legend:
[1] = molecular target: T1, recombinant mouse macrophage mannose receptor rmMMR/CD206 (Mus musculus, UniProt Q61830); assay: Fluorescence anisotropy assay with mouse recombinant CD206; assay type: binding; details: 50 nM FAM peptide, 1 μM protein, 25 °C
T1 construct: purchased R&D Systems 2535-MM-050
T1 sequence (Q61830 20-1456): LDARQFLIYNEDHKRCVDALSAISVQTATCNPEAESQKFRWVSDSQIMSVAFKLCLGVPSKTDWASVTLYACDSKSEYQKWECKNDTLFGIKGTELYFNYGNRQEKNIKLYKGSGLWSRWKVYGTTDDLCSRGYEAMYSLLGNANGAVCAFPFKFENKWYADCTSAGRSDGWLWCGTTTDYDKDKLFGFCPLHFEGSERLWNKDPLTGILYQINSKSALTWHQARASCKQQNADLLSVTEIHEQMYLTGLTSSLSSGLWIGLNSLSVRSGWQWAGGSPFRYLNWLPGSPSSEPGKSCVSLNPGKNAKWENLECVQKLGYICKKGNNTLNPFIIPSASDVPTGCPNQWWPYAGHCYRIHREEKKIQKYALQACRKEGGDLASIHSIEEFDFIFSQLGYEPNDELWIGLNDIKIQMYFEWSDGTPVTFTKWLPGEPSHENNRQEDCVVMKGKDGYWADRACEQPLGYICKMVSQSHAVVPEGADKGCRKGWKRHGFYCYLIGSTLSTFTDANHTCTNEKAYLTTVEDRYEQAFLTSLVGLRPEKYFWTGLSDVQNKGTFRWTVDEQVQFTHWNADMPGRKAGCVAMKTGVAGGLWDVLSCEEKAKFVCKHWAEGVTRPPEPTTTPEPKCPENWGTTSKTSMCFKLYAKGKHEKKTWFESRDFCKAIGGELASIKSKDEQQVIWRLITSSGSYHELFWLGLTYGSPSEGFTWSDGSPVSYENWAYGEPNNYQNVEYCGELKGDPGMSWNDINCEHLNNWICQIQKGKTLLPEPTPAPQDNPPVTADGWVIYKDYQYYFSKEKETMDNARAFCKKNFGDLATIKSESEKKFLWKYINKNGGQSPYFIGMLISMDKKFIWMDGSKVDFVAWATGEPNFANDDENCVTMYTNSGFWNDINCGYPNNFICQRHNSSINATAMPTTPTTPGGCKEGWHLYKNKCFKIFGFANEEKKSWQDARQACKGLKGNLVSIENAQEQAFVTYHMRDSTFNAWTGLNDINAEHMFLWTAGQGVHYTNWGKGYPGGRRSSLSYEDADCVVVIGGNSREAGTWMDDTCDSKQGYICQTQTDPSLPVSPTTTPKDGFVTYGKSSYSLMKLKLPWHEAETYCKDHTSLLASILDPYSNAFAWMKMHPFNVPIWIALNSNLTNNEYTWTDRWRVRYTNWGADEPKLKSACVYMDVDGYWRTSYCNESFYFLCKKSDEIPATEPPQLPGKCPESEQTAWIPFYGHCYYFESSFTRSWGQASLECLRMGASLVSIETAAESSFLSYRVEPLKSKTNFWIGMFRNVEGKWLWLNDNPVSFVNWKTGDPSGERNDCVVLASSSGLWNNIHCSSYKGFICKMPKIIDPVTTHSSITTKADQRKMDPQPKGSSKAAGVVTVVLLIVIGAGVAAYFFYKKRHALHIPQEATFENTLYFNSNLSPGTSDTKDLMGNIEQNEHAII
Method: The stocks of fluorescent ligands (FAM-UNO, FAM-CSPGAK and FAM-CPMTDNE) in mQ water were stored at −20° C. […], 150 mM NaCl, 1 mM CaCl2, 0.1% Pluronic F-127, pH 7.4) on the day of experiment. The concentration of fluorescent ligands was determined by absorbance of FAM (E495=75000 M^−1 cm^−1).
The recombinant mouse macrophage mannose receptor rmMMR/CD206 (R&D Systems, catalog number: 2535-MM-050) and recombinant mouse CD163 (R&D Systems, catalog number: 7435-CD-050) were reconstituted at 1 mg/ml in IB, aliquoted and stored at −20° C. To generate linearized version of cyclic FAM-UNO peptide, the peptide at 1 mM concentration was preincubated for 24 h at room temperature in a dark place with 3 mM DTT and diluted with IB 2×10^5 times before the FA assay. The control experiment with FAM-CPMTDNE peptide (FIG. 22) was performed to rule out the possibility of disulphide bond formation, which could affect the binding properties of linear peptides. Initially, the peptide was preincubated in DMSO for 4 days at room temperature to enhance the disulphide bond formation, and then diluted in IB buffer with 3 mM DTT, and the disappearance of preformed dimer was observed as a change in FA signal.
In all experiments, FA signal measurements were done under pseudo first-order conditions with 50 nM singly labelled FAM peptides and 1 μM proteins. […] Assays were carried out in kinetic mode in a total volume of 30 μl at 25° C. on the PHERAstar (BMG Labtech, Germany) microplate reader using an optical module with excitation and emission filters of 485 nm (slit 10 nm) and 520 nm (slit 10 nm), respectively. Dual emission detection mode allows simultaneous recording of intensities that are parallel (l) and perpendicular (1) to the plane of excitation light. […] The background fluorescence (receptor and buffer components in the absence of fluorescent ligand) was subtracted independently from all intensity channels. FA signals at time t after initiation of binding reaction was calculated as parameters r(t) from the equation: […]

[2] = test system: peritoneal macrophages; assay: In vivo phage display on peritoneal cells of 4T1 tumor-bearing versus normal mice; set-up: species or system mouse; details: phage-displayed peptide, peritoneal cells of 4T1 tumor mice
Method: A, Naive phage library was injected intraperitoneally in 4T1 tumor-bearing mice and age-matched normal mice, and allowed to circulate for two h. Peritoneal cells were collected, the accompanying phages were rescued and the peptide-encoding segment of phage DNA was sequenced. […] Peritoneal cells were extracted from the mice, seeded on coverslips, allowed to attach for 2 h, fixed, permeabilized, and stained for CD206. CD206+ cells were counted from 6 different confocal images, 2 from each mouse. C, Highly repeated sequences obtained from the first round of the biopanning experiment shown schematically in panel A. D, Frequency of phage clones encoding UNO or a randomly picked peptide (CIGVSSDC) divided by the total number of repeated sequences) in the 4T1 tumor-bearing and normal mice.
Ten days later, the 4T1 mouse and a Balb/c female mouse of the matched age, were injected with 500 μL of a 7×10^10 pfu/mL of purified CX7C long-circulating library that bears a mutation on the p17 protein of tail fiber^45. After 2 h the mice were anesthetized and peritoneal cells were collected, washed by centrifugation, and lysed by hand-held homogenizer in 2 mL of LB+NP40 1%. The phage was amplified in E. coli strain BLT5403 for high throughput sequencing of peptide encoding segment of the phage genomic DNA using Ion Torrent semiconductor sequencing system.
In vivo phage display was carried out on orthotopic breast cancer bearing mice as outlined in FIG. 1A. Compared to peritoneal cells of healthy mice, […] macrophages were ˜5-fold overrepresented in Balb/c mice bearing metastatic syngeneic 4T1 breast tumors (FIG. 1B). We hypothesized that a peptide that binds to peritoneal macrophages in tumor-bearing mice may also target M2-like TAMs. Mice with 4T1 tumors were injected intraperitoneally (i.p.) with a phage library expressing 9-amino acid cyclic CX7C peptides. After 2 h, peritoneal cells were collected, bound phages were rescued by amplification, and the resulting phage pool was subjected to high-throughput sequencing of the peptide-encoding segment of the phage genome. […]

[3] = test system: peritoneal cells (CCR2+ macrophages) of 4T1 tumor-bearing mice; assay: Flow cytometry of FAM-peptide binding to peritoneal cells from 4T1 tumor mice; assay type: cell-based, mouse; details: anti-CD206 10 μg/mL
Method: A, Change in fluorescence anisotropy of FAM-UNO (dotted line) and FAM-UNO in DTT (solid line) while incubating with mouse recombinant CD206. B, Change in fluorescence anisotropy of FAM-CSPGAK with mouse recombinant CD206 (solid line) or with CD163 (dotted line) and of FAM-CPMTDNE (control) with CD206 (dashed line). C, FAM-UNO binds selectively to CCR2^+ macrophages collected from the peritoneal cavity of 4T1 tumor-bearing mice, as 94.3% of FAM^+ cells are CCR2^+ cells. The analysis was done gating for the FAM^+ population (left panel). In these 4T1 tumor bearing mice, 58% of peritoneal cells are macrophages, i.e. CCR2^+ cells (right panel). D, FAM-UNO binding to peritoneal cells is inhibited by preincubating with 10 µg/mL of anti-CD206, whereas the preincubation with anti CD206 antibody had no effect on FAM-LyP-1 binding. In panels A and D are shown representative graphs from three independent experiments. In panels c and d are shown results from three independent experiments (n=3 mice) and bars of panel D represents mean+SEM.
Peritoneal cells were extracted from Balb/c mice 2 weeks after inoculation of 10^6 cells orthotopically). Mice were anesthetized and intraperitoneally injected with 5 mL of PBS+1% BSA, the abdomen was massaged to detach macrophages and the peritoneal fluid was collected. This procedure typically yielded 5-9×10^6 cells. Cells were concentrated to 1 mL in the same peritoneal fluid. For FAM-peptide incubation, the peptides were incubated for 30 minutes at 4° C. For antibody incubation the cells were incubated with antibody for 1 h at 4° C. A647 Rat anti-CCR2 (Biolegend, CA, USA. Catalog number 150603) was incubated for 1 h at 4° C. at a dilution of 1/200. FAM-peptides were incubated at a concentration of 0.5 μg/mL, and Rat anti-CD206 (Bio-Rad, CA, USA. Product code MCA2235GA) was incubated at a concentration of 10 μg/mL. Binding of FAM-peptides was monitored with 488 nm channel and CCR2 labeling was assessed in the 647 nm channel using A647 Anti-CCR2 (Biolegend, CA, USA). After incubation of FAM-Peptides or antibodies, the cells were washed 3 times at 4° C. with PBS-Tby centrifugation at 250 g for 6 minutes, followed by flow cytometry analysis (Accuri, BD Biosciences, CA, USA).

FAM-CPMTDNE: FAM-labeled control peptide CPMTDNE (SEQ ID NO: 7) (not fully specified; FAM label) [reference compound]
change in fluorescence anisotropy (interaction) with mouse recombinant CD206 [1]: did not cause significant changes in anisotropy values

CGEKRTRGC [phage clone previously identified together with LyP-1]
representation among sequenced phage clones [2]: second most abundant phage clone overrepresented in the cancer mice

FAM-LyP-1: FAM-labeled LyP-1 (CGNKRTRGC; SEQ ID NO: 4), peptide that targets cell surface p32 (not fully specified (N-terminus); cysteine pairing not given here) [reference compound]
reduction of binding to peritoneal cells by pre-incubation with anti-CD206 antibody [3]: no effect
